Test: Solubility of Tadalafil in 2-pyrrolidone
Format: physicochemical
Details: compared with ethanol as solvent
Description: Pyrroplus Manufacturing Process” as described above, overcomes several problems associated with the low solubility of Tadalafil. […] Conversely, using ethanol as solvent requires either increased amount of solvent or small quantity of Tadalafil, which both incommode the preparation of a pharmaceutical composition.

CN1CC(=O)N2[C@H](c3ccc4c(c3)OCO4)c3[nH]c4ccccc4c3C[C@@H]2C1=O [Tadalafil]
solubility when dissolved in 2-pyrrolidone: its solubility increases and reaches high values

Source: patent publication US9561186B2, “Method for improving the bioavailability of low aqueous solubility drugs” (PHARMATHEN S.A., priority 2012, dated 2017)
